SMILES strings stand for the structures. Some results are limits rather than exact numbers.

This experiment concerns the target HDAC. The experiment can be described thus: HDAC fluorimetric enzyme assay (HeLa nuclear extract). The class given is biochemical. On the procedure:
HDAC inhibitors were screened using an HDAC fluorimetric assay kit (AK-500, Biomol, Plymouth Meeting, Pa.).
Each assay was setup as follows: Defrosted all kit components and kept on ice until use. […] Prepared dilutions of Trichostatin A (TSA, positive control) and tested compounds in assay buffer (5× of final concentration). Diluted Fluor de Lys™ Substrate in assay buffer to 100 uM (50 fold=2× final). Diluted Fluor de Lys™ developer concentrate 20-fold (e.g. 50 μl plus 950 μl Assay Buffer) in cold assay buffer. Second, diluted the 0.2 mM Trichostatin A 100-fold in the 1× Developer (e.g. 10 μl in 1 ml; final Trichostatin A concentration in the 1× Developer=2 μM; final concentration after addition to HDAC/Substrate reaction=1 μM). Added Assay buffer, diluted trichostatin A or test inhibitor to appropriate wells of the microtiter plate. Added diluted HeLa extract or other HDAC sample to all wells except for negative controls.
`C#Cc1cccc(Nc2ncnc3ccc(OCC(=O)NO)cc23)c1` [Compound 19, 2-(4-(3-ethynylphenylamino)quinazolin-6-yloxy)-N-hydroxyacetamide] showed an IC50 of more than 10000 nM.

`O=C(COc1ccc2ncnc(Nc3ccc(F)c(Cl)c3)c2c1)NO` [Compound 13, 2-(4-(3-Chloro-4-fluorophenylamino)quinazolin-6-yloxy)-N-hydroxyacetamide] showed an IC50 of more than 10000 nM.

The molecule `C#Cc1cccc(Nc2ncnc3ccc(OCCCCCCC(=O)NO)cc23)c1` [Compound 24, 7-(4-(3-ethynylphenylamino)quinazolin-6-yloxy)-N-hydroxyheptanamide] registered an IC50 of less than 100 nM.

`COc1cc2ncnc(NCc3ccc(F)cc3)c2cc1OCCCCCCC(=O)NO` [Compound 86, 7-(4-(4-fluorobenzylamino)-7-methoxyquinazolin-6-yloxy)-N-hydroxyheptanamide] displayed an IC50 of less than 100 nM.

`C#Cc1cccc(Nc2ncnc3cc(OCCOC)c(OCCCCCCC(=O)NO)cc23)c1` [Compound 36, 7-(4-(3-Ethynylphenylamino)-7-(2-methoxyethoxy)quinazolin-6-yloxy)-N-hydroxyheptanamide]: the 50% inhibitory concentration (IC50) is less than 100 nM.

The molecule `C#Cc1cccc(Nc2ncnc3cc(OC)c(OCCCC(=O)NO)cc23)c1` [Compound 9, 4-(4-(3-ethynylphenylamino)-7-methoxyquinazolin-6-yloxy)-N-hydroxybutanamide] returned an IC50 of 100 to 1000 nM.

Take `C[C@@H](Nc1ncnc2ccc(OCCCCCC(=O)NO)cc12)c1ccccc1` [Compound 78, (R)—N-hydroxy-6-(4-(1-phenylethylamino)-quinazolin-6-yloxy)hexanamide]: the IC50 was less than 100 nM.

`COc1cc2ncnc(N[C@@H](C)c3ccccc3)c2cc1OCCCCCCC(=O)NO` [Compound 80, (S)—N-hydroxy-7-(7-methoxy-4-(1-phenylethylamino)quinazolin-6-yloxy) heptanamide] showed an IC50 of less than 100 nM.

As to `COc1cc2ncnc(NCc3cccc(Br)c3)c2cc1OCCCCCCC(=O)NO` [Compound 89, 7-(4-(3-bromobenzylamino)-7-methoxyquinazolin-6-yloxy)-N-hydroxyheptanamide], the IC50 was less than 100 nM.

With `C#Cc1cccc(Nc2ncnc3cc(OC)c(OCCCCC(=O)NO)cc23)c1` [Compound 10, 5-(4-(3-Ethynylphenylamino)-7-methoxyquinazolin-6-yloxy)-N-hydroxypentanamide], the concentration for half-maximal inhibition (IC50) lay within 100 to 1000 nM.

Molecule `COc1cc2ncnc(Nc3ccc(F)c(Cl)c3)c2cc1NC(=O)CCCC(=O)NO` [Compound 38, N^1-(4-(3-chloro-4-fluorophenylamino)-7-methoxyquinazolin-6-yl)-N^5-hydroxyglutaramide] displayed an IC50 of 1000 to 10000 nM.

For the molecule `COc1cc2ncnc(Nc3ccc(F)c(Cl)c3)c2cc1OCCCCCC(=O)NO` [Compound 5], the half-inhibitory concentration (IC50) was less than 100 nM.

In turn, `C#Cc1cccc(CNc2ncnc3cc(OC)c(OCCCCCCC(=O)NO)cc23)c1` [Compound 90] yielded a 50% inhibitory concentration (IC50) of less than 100 nM.

The molecule `COc1cc2ncnc(Nc3ccc(F)c(Cl)c3)c2cc1OCCC(=O)NO` [Compound 2] displayed an IC50 of more than 10000 nM.

As to `COCCOc1cc2ncnc(Nc3ccc(F)c(Cl)c3)c2cc1NC(=O)CCCCC(=O)NO` [Compound 69, N^1-(4-(3-chloro-4-fluorophenylamino)-7-(2-methoxyethoxy)quinazolin-6-yl)-N^6-hydroxyadipamide], the IC50 lay within 100 to 1000 nM.

Molecule `COc1cc2ncnc(Nc3ccc(F)c(Cl)c3)c2cc1OCCOc1ccc(/C=C/C(=O)NO)cc1` [Compound 66, (E)-3-(4-(2-(4-(3-chloro-4-fluorophenylamino)-7-methoxyquinazolin-6-yloxy)ethoxy)phenyl)-N-hydroxyacrylamide] had an IC50 of 100 to 1000 nM.

In the case of `COc1cc2ncnc(Nc3ccc(F)c(Cl)c3)c2cc1OCCCCC(=O)NO` [Compound 4], the IC50 was in the range of 100 to 1000 nM.

The molecule `C[C@@H](Nc1ncnc2ccc(OCCCCCC(=O)NO)cc12)c1ccccc1` [Compound 50] came in with a 50% inhibitory concentration (IC50) of 100 to 1000 nM.

`COc1cc2ncnc(Nc3ccc(F)c(Cl)c3)c2cc1OCC(=O)NO` [Compound 1, 2-(4-(3-Chloro-4-fluorophenylamino)-7-methoxyquinazolin-6-yloxy)-N-hydroxyacetamide] came in with a 50% inhibitory concentration (IC50) of more than 10000 nM.

`COc1cc2ncnc(N[C@H](C)c3ccc(F)cc3)c2cc1OCCCCCCC(=O)NO` [Compound 81, (R)-7-(4-(1-(4-fluorophenyl)ethylamino)-7-methoxyquinazolin-6-yloxy)-N-hydroxyheptanamide] displayed an IC50 of 100 to 1000 nM.

As to `C#Cc1cccc(Nc2ncnc3ccc(OCCCC(=O)NO)cc23)c1` [Compound 21, 4-(4-(3-ethynylphenylamino)quinazolin-6-yloxy)-N-hydroxybutanamide], the IC50 is 1000 to 10000 nM.

In turn, `COc1cc2ncnc(Nc3ccc(F)c(Cl)c3)c2cc1NC(=O)Nc1ccc(C(=O)NO)cc1` [Compound 93] registered a half-maximal inhibitory concentration (IC50) of 1000 to 10000 nM.

In turn, `C#Cc1cc(Nc2ncnc3cc(OC)c(OCCCCCCC(=O)NO)cc23)ccc1F` [Compound 75, 7-(4-(3-ethynyl-4-fluorophenylamino)-7-methoxyquinazolin-6-yloxy)-N-hydroxyheptanamide] returned an IC50 of less than 100 nM.

The molecule `COc1cc2ncnc(NCc3ccccc3)c2cc1OCCCCCCC(=O)NO` [Compound 85, 7-(4-(Benzylamino)-7-methoxyquinazolin-6-yloxy)-N-hydroxyheptanamide] gave an IC50 of less than 100 nM.

Consider `COc1ccc([C@@H](C)Nc2ncnc3cc(OC)c(OCCCCCCC(=O)NO)cc23)cc1` [Compound 83, (R)—N-Hydroxy-7-(7-methoxy-4-(1-(4-methoxyphenyl)ethylamino)-quinazolin-6-yloxy)-heptanamide], for which the 50% inhibitory concentration (IC50) was less than 100 nM.

As to `COc1cc2ncnc(Nc3ccc(F)c(Cl)c3)c2cc1OCCCCCCC(=O)N(C)O` [Compound 94], the IC50 was more than 10000 nM.

For `C#Cc1cccc(Nc2ncnc3ccc(OCCCCC(=O)NO)cc23)c1` [Compound 22], the 50% inhibitory concentration (IC50) was less than 100 nM.

In the case of `C#Cc1cccc(Nc2ncnc3cc(OC)c(NC(=O)CCCC(=O)NO)cc23)c1` [Compound 42, N^1-(4-(3-ethynylphenylamino)-7-methoxyquinazolin-6-yl)-N^5-hydroxyglutaramide], the IC50 lay in the range of 100 to 1000 nM.

Molecule `COc1cc2ncnc(Nc3ccc(F)c(Cl)c3)c2cc1OCCCC(=O)NO` [Compound 3, 4-(4-(3-Chloro-4-fluorophenylamino)-7-methoxyquinazolin-6-yloxy)-N-hydroxybutanamide] returned an IC50 of more than 10000 nM.

`C#Cc1cccc(Nc2ncnc3cc(OC)c(OCCC(=O)NO)cc23)c1` [Compound 8]: the IC50 was more than 10000 nM.

On to `COc1cc2ncnc(NCc3ccc(F)c(F)c3)c2cc1OCCCCCCC(=O)NO` [Compound 87, 7-(4-(3,4-difluorobenzylamino)-7-methoxyquinazolin-6-yloxy)-N-hydroxyheptanamide], for which the IC50 was less than 100 nM.

The molecule `C#Cc1cccc(Nc2ncnc3cc(OC)c(OCC(=O)NO)cc23)c1` [Compound 7, 2-(4-(3-ethynylphenylamino)-7-methoxyquinazolin-6-yloxy)-N-hydroxyacetamide] registered a half-maximal inhibitory concentration (IC50) of more than 10000 nM.

With `C#Cc1cccc(Nc2ncnc3cc(OC)c(OCCCCCC(=O)NO)cc23)c1` [Compound 11, 6-(4-(3-ethynylphenylamino)-7-methoxyquinazolin-6-yloxy)-N-hydroxyhexanamide], the concentration for half-maximal inhibition (IC50) was less than 100 nM.

`COc1cc2ncnc(N[C@H](C)c3ccccc3)c2cc1OCCCCCC(=O)NO` [Compound 77, (R)—N-hydroxy-6-(7-methoxy-4-(1-phenylethylamino)quinazolin-6-yloxy)-hexanamide] returned an IC50 of less than 100 nM.

`O=C(/C=C/c1ccc(OCCOc2ccc3ncnc(Nc4ccc(F)c(Cl)c4)c3c2)cc1)NO` [Compound 63]: the IC50 lay in the range of 100 to 1000 nM.

In turn, `C#Cc1cccc(Nc2ncnc3cc(OC)c(NC(=O)CCCCC(=O)NO)cc23)c1` [Compound 43, N^1-(4-(3-ethynylphenylamino)-7-methoxyquinazolin-6-yl)-N^6-hydroxyadipamide] had an IC50 of 100 to 1000 nM.

For `COc1cc2ncnc(NCc3ccc(F)c(Cl)c3)c2cc1OCCCCCCC(=O)NO` [Compound 88, 7-(4-(3-chloro-4-fluorobenzylamino)-7-methoxyquinazolin-6-yloxy)-N-hydroxyheptanamide], the IC50 is less than 100 nM.

In turn, `O=C(CCCCCCOc1ccc2ncnc(Nc3ccc(F)c(Cl)c3)c2c1)NO` [Compound 18, 7-(4-(3-chloro-4-fluorophenylamino)quinazolin-6-yloxy)-N-hydroxyheptanamide] returned an IC50 of less than 100 nM.

`Nc1cc(Br)ccc1NC(=O)COc1ccc2ncnc(Nc3ccc(F)c(Cl)c3)c2c1` [Compound 45] showed a half-maximal inhibitory concentration (IC50) of more than 10000 nM.

Molecule `COc1cc2ncnc(Nc3ccc(F)c(Cl)c3)c2cc1NC(=O)CCCCCCC(=O)NO` [Compound 40, N^1-(4-(3-chloro-4-fluorophenylamino)-7-methoxyquinazolin-6-yl)-N^8-hydroxyoctanediamide] had an IC50 of less than 100 nM.

As for `O=C(CCCCCOc1ccc2ncnc(Nc3ccc(F)c(Cl)c3)c2c1)NO` [Compound 17, 6-(4-(3-Chloro-4-fluorophenylamino)quinazolin-6-yloxy)-N-hydroxyhexanamide], the IC50 is less than 100 nM.

On to `C#Cc1cccc(Nc2ncnc3ccc(OCCCCCC(=O)NO)cc23)c1` [Compound 23, 6-(4-(3-ethynylphenylamino)quinazolin-6-yloxy)-N-hydroxyhexanamide], for which the IC50 is less than 100 nM.

In the case of `COCCOc1cc2ncnc(Nc3ccc(F)c(Cl)c3)c2cc1NC(=O)CCCC(=O)NO` [Compound 68, N^1-(4-(3-chloro-4-fluorophenylamino)-7-(2-methoxyethoxy)quinazolin-6-yl)-N^5-hydroxyglutaramide], the IC50 lay within 1000 to 10000 nM.

As to `COc1cc2ncnc(Nc3ccc(F)c(Cl)c3)c2cc1OCCOc1ccc(CC(=O)NO)cc1` [Compound 91], the IC50 was in the range of 1000 to 10000 nM.

By IC50 is commonly meant the concentration at which inhibition is half-maximal.

(Values after patent publication US8846912B2, “Tartrate salts of quinazoline based EGFR inhibitors containing a zinc binding moiety” (Curis, Inc., priority 2007, dated 2014).)
